Where two headings read alike, the source gives them in different places.
Legend:
[1] = system: matrix-degrading enzymes (MMP3, MMP9, MMP12, MMP13, and ADAMTS5); experiment: mRNA (qRT-PCR) and protein (Western blotting) levels of matrix-degrading enzymes in chondrocytes; assay type: cell-based, mouse; details: for Ad-Mtf1-induced upregulation of matrix-degrading enzymes, effect of the test agent: chondrocytes infected with Ad-Mtf1; for upregulation of MMP3, MMP13, and ADAMTS5 by IL1β, effect of the test agent: chondrocytes treated with IL1β; for inhibitory effects of TPEN on the ZIP8-mediated expression of matrix-degrading enzymes, effect of pre-incubation of TPEN with the metal salt: Ad-Zip8 chondrocytes, TPEN 1 μM pre-incubated with 1 μM metal ion; for expression of matrix-degrading enzymes caused by the substance itself: chondrocytes, metal salts 100 μM (CdCl2 1 μM)
Experimental: (§1) Adenoviruses expressing mouse Zip8 (Ad-Zip8) and Mtf1 (Ad-Mtf1) were purchased from Vector Biolabs. Mouse articular chondrocytes were cultured for 2 days, infected with empty virus (Ad-C), Ad-Zip8, or Ad-Mtf1 for 2 hours at the indicated multiplicity of infection (MOI), and cultured for 24 hours, followed by further analyses.
(§2) Total RNA was extracted from primary cultured chondrocytes using the TRI reagent (Molecular Research Center Inc.). For the isolation of RNA from knee joints, cartilage tissues were scraped with a blade to remove cartilage, and RNA was isolated using the TRI reagent and Purelink RNA mini kit (Ambion). The RNA was reverse transcribed, and the resulting cDNA was amplified by PCR.
(§3) Transcript levels were quantified by qRT-PCR. siRNAs targeting Zip8 and Mtf1 were obtained from Dharmacon and transfected using Lipofectamine 2000. Non-targeting (scrambled) siRNA was used as a negative control. Chondrocytes were transfected by incubating for 6 hours with siRNA and Lipofectamine 2000 (Invitrogen), and infected with adenoviruses as described above. Therapeutic antibodies for obstruction of ZIP8 function were purchased from Santa Cruz Biotechnology and MyBioSource Company, and treated in chondrocytes for 24 hours.
Total cell lysates were prepared in lysis buffer (150 mM NaCl, 1% NP-40, 50 mM Tris, 5 mM NaF) and used to detect cellular proteins (ZIP8, MTF1, and ERK). Secreted proteins (MMP3, MMP13, and ADAMTS5) were detected after trichloroacetic acid (TCA) precipitation from 900 μl of serum-free conditioned medium. All lysis buffers contained a cocktail of protease inhibitors and phosphatase inhibitors (Roche).

ZIP8 [2] = biological target: T1, ZIP8 (Mus musculus, UniProt Q91W10); experiment: Zn^2+ imaging and quantitation with FluoZin-3 AM in primary cultured articular chondrocytes; assay type: cell-based; details: for ZIP8-mediated increase in Zn^2+ influx: chondrocytes infected with Ad-Zip8, with the test agent; for IL1β-caused influx of Zn^2+ in chondrocytes, effect of the test agent: chondrocytes treated with IL1β; for cellular Zn^2+ level, effect of the substance itself: chondrocytes
T1 construct: host or cells: primary mouse articular chondrocytes infected with Ad-Zip8
T1 sequence (Q91W10 20-462): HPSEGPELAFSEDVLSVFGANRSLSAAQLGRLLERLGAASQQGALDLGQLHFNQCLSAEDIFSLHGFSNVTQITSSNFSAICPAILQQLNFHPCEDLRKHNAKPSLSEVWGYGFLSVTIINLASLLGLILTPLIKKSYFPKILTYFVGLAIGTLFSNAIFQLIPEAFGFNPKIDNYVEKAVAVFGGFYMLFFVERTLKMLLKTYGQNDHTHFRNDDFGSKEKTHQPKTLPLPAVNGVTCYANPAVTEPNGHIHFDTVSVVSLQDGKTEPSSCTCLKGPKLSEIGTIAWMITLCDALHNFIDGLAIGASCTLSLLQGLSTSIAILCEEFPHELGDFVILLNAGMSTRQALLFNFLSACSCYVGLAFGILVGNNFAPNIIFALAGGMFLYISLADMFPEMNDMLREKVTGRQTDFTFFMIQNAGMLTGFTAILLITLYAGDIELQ
Experimental: Chondrocytes were maintained as a monolayer in Dulbecco's Modified Eagle's Medium (DMEM) supplemented with 10% fetal bovine serum (FBS) and antibiotics, and cells at culture day 2 were treated as indicated in each experiment.
as §1
Intracellular Zn^2+ was detected using the Zn^2+-selective fluorophore, FluoZin-3 AM (Invitrogen). […] Cells were then washed with Ca^2+- and Mg^2+-free phosphate-buffered saline (PBS) and incubated for an additional 30 minutes at 37° C. Intracellular Zn^2+ images were acquired with a fluorescence microscope, and population-wide fluorescence intensity was measured using a Spectramax Gemini microplate fluorescence reader (Molecular Devices) with excitation at 488 nm, cut-off at 515 nm, and emission at 530 nm.
as §3

MTF1 = biological target: T2, MTF1 (Mus musculus, UniProt Q07243); experiment: MTF1 activity reporter gene assay and immunostaining in chondrocytes; assay type: cell-based; details: for inhibitory effects of TPEN on MTF1 transcriptional activity, effect of pre-incubation of TPEN with the metal salt: Ad-Zip8 chondrocytes, TPEN 1 μM pre-incubated with 1 μM metal ion; for MTF1 transcriptional activity, effect of the substance itself: chondrocytes, reporter gene assay
T2 construct: endogenous in cells; host or cells: primary mouse articular chondrocytes
Experimental: The MTF1 reporter gene assay kit was obtained from SABiosciences. Chondrocytes were transfected for 6 hours with a metal response element (MRE) reporter construct and a constitutive Renilla luciferase construct using Lipofectamine 2000 (Invitrogen). Transfected cells were infected with Ad-Mtf1 or Ad-Zip8 for 2 hours or treated with metal ions. Cells were harvested 24 hours after treatment, and firefly luciferase and Renilla luciferase activities were measured using a Dual Luciferase Assay System (Promega). […] MTF1 was detected by immunofluorescence microscopy. Images were acquired using a fluorescence microscope, and at least 200 cells were examined in multiple fields per condition to quantify the percentage of nuclear MTF1-positive cells.

mouse knee joints = experiment: Experimental OA induced by IA injection of adenovirus into mouse knee joints, histology and immunostaining; assay type: in vivo; details: 0.1 mg/kg body weight
Excerpt: Male mice (C57BL/6, Col2a1-Zip8 TG, Zip8^+/−, Zip8^fl/fl; Zip8^fl/fl; Col2a1-Cre, Mtf1^+/−, Mtf1^fl/fl, Mtf1^fl/fl; Col2a1-Cre, Mt1^−/−; Mt2^−/−) were used for experimental OA studies. Chondrocyte-specific Zip8 TG (Col2a1-Zip8) mice were generated using the Col2a1 promoter and enhancer. Zip8^+/− mice were obtained from The European Mouse Mutant Archive. The Mtf1 mouse strain used for this research project was created from an ES cell clone generated by the Wellcome Trust Sanger Institute and developed into mice by the KOMP Repository and the Mouse Biology Program at the University of California, Davis. Zip8^+/− and Mtf1^+/− mice were backcrossed with Actb-Flp1 TG mice (The Jackson Laboratory) to generate Zip8fl/fl and Mtf1fl/fl mice, respectively. These mice were then backcrossed with Col2a1-Cre TG mice (The Jackson Laboratory) to generate chondrocyte-specific CKO mice (Zip8^fl/fl; Col2a1-Cre and Mtf1^fl/fl; Col2a1-Cre). Mt1^−/−, Mt2^−/− double-KO mice were obtained from The Jackson Laboratory. […]
Human OA cartilage was frozen, sectioned at 10-μm thickness, and fixed in paraformaldehyde. Sulfate proteoglycan was detected with alcian blue staining. Human ZIP8 was detected by immunostaining. […] Sections were deparaffinized in xylene, hydrated with graded ethanol, and stained with safranin-O. Cartilage destruction was scored by two blinded observers using the OARSI grading system (Glasson et al., 2010). Synovitis was determined by safranin-O and hematoxylin staining, and synovial inflammation (grade 0-3) was scored as described previously (Yang et al., 2010). Osteophyte development was identified by safranin-O staining, and osteophyte maturity was quantified as described previously (Oh et al., 2012). Subchondral bone sclerosis was determined by measuring the thickness of the subchondral bone plate (Zhen et al., 2013). Antibodies used for immunostaining of cartilage sections are as follows: ZIP8 and MTF1 in human cartilage tissue sections were detected by antibodies obtained from Proteintech (20459-1-AP) and Novus (NBP1-86380), respectively. […]

ZIP8 [3] = experiment: Expression levels of metal ion transporters in chondrocytes treated with IL1β; assay type: cell-based; details: primary cultures of mouse articular chondrocytes
Excerpt: FIG. 1a represents mRNA levels of metal ion transporters determined by qRT-PCR in articular chondrocytes treated with IL1β (n=10). Insert is Western blotting of ZIP8 in chondrocytes treated with IL1β.
as §2

[4] = chondrocytes infected with Ad-Zip8

T2 sequence (Q07243 whole entry): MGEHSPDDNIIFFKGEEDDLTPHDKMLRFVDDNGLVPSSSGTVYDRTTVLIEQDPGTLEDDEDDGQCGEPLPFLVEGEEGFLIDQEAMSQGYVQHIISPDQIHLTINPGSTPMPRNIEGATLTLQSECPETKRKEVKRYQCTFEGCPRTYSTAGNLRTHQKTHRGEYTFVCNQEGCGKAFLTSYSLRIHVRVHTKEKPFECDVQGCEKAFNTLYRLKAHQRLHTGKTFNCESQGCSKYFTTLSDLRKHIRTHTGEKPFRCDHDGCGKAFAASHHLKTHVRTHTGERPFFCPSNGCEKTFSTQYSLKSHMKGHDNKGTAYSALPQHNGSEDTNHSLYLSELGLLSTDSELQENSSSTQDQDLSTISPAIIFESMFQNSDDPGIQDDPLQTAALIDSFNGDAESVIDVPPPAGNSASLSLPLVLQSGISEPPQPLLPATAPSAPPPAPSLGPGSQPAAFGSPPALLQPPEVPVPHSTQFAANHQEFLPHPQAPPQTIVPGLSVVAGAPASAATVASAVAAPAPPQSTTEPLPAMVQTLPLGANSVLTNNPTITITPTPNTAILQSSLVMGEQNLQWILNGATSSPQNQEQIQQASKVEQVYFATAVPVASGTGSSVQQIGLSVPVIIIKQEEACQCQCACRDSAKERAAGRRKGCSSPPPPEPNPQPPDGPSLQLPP

c1ccc(-c2ccccn2)nc1 [2,2-bipyridyl]
Ad-Zip8 (ZIP8)-induced upregulation of matrix-degrading enzymes, effect of the test agent [1, 4]: did not affect

O=C(O)CN(CCN(CC(=O)O)CC(=O)O)CC(=O)O.[Ca] [CaEDTA, calcium-saturated EDTA]
ZIP8-mediated increase in Zn^2+ influx (ZIP8 [2]): abolished
IL1β-caused influx of Zn^2+ in chondrocytes, effect of the test agent (ZIP8 [2]): blocked
Ad-Mtf1-induced upregulation of matrix-degrading enzymes, effect of the test agent [1]: abolished
Ad-Zip8 (ZIP8)-induced upregulation of matrix-degrading enzymes, effect of the test agent [1, 4]: blocked
upregulation of MMP3, MMP13, and ADAMTS5 by IL1β, effect of the test agent [1]: abolished

[Cl][Cd][Cl] [CdCl2]
inhibitory effects of TPEN on the ZIP8-mediated expression of matrix-degrading enzymes, effect of pre-incubation of TPEN with the metal salt [1]: no significant effects
MMP12 expression ([1]; chondrocytes treated with metal ion): modest induction
expression of matrix-degrading enzymes caused by the substance itself [1]: did not cause a marked expression
expression of matrix-degrading enzymes caused by the substance itself ([1]; listed as Cd^2+): no significant effect
inhibitory effects of TPEN on MTF1 transcriptional activity, effect of pre-incubation of TPEN with the metal salt (MTF1): not
MTF1 transcriptional activity, effect of the substance itself (MTF1): moderate activation

[Cl][Fe][Cl] [FeCl2]
inhibitory effects of TPEN on the ZIP8-mediated expression of matrix-degrading enzymes, effect of pre-incubation of TPEN with the metal salt [1]: no significant effects
expression of matrix-degrading enzymes caused by the substance itself [1]: moderate expression
inhibitory effects of TPEN on MTF1 transcriptional activity, effect of pre-incubation of TPEN with the metal salt (MTF1): not
MTF1 transcriptional activity, effect of the substance itself (MTF1): no effect

[Cl][Mn][Cl] [MnCl2]
inhibitory effects of TPEN on the ZIP8-mediated expression of matrix-degrading enzymes, effect of pre-incubation of TPEN with the metal salt [1]: no significant effects
expression of matrix-degrading enzymes caused by the substance itself [1]: did not cause a marked expression
inhibitory effects of TPEN on MTF1 transcriptional activity, effect of pre-incubation of TPEN with the metal salt (MTF1): not
MTF1 transcriptional activity, effect of the substance itself (MTF1): no effect

c1ccc(CN(CCN(Cc2ccccn2)Cc2ccccn2)Cc2ccccn2)nc1 [TPEN, N,N,N′,N′-tetrakis (2-pyridylmethyl)ethylenediamine]
ZIP8-mediated increase in Zn^2+ influx (ZIP8 [2]): abolished
IL1β-caused influx of Zn^2+ in chondrocytes, effect of the test agent (ZIP8 [2]): blocked
Ad-Mtf1-induced upregulation of matrix-degrading enzymes, effect of the test agent [1]: abolished
Ad-Zip8 (ZIP8)-induced upregulation of matrix-degrading enzymes, effect of the test agent [1, 4]: blocked
upregulation of MMP3, MMP13, and ADAMTS5 by IL1β, effect of the test agent [1]: abolished
Ad-Zip8-induced MMP expression, effect of co-injection (mouse knee joints): significantly blocked
Ad-Zip8-induced cartilage destruction, effect of co-injection (mouse knee joints): significantly blocked
Ad-Zip8-induced synovitis, effect of co-injection (mouse knee joints): significantly blocked
MTF1 transcriptional activity in Ad-Zip8-infected chondrocytes, effect of the test agent (MTF1; 800 MOI of Ad-Zip8, TPEN 1 μM): inhibitory effects

IL1β: proinflammatory cytokine that promotes catabolism in arthritic cartilage
cellular Zn^2+ level, effect of the substance itself (ZIP8 [2]): caused an influx of Zn^2+
cellular Zn^2+ level, effect of the substance itself (ZIP8 [2]; listed as IL-1): increases
ZIP8 expression levels (ZIP8 [3]): markedly increased

mithramycin-A
Ad-Zip8 (ZIP8)-induced upregulation of matrix-degrading enzymes, effect of the test agent [1]: significantly attenuated
